Laboratory results from a melting point compilation (Tetko et al.).

Compound	melting point
CC1CCC(C(C)C)C(OC(=O)CC#N)C1 (centres undefined)	84 °C
Nc1c(Br)cc(F)c(F)c1F	58 to 60 °C
O=C(Nc1cccc2ccccc12)C(C(F)(F)F)C(F)(F)F	224 °C
OC1C2CC3CC(C2)CC1C3 (centres undefined)	301 °C
CN1C(CC(=O)c2ccccc2)CCCC1CC(O)c1ccccc1 (centres undefined)	130 °C
CCN(CCO)c1ccccc1	37 °C
NCc1cc(C(F)(F)F)ccc1N1CCOCC1	31 to 34 °C
CCCCOC(=O)CCCCC(=O)OCCCC	-32.4 °C
ClCCCCCCCCCCCl	15.6 °C
ClC(Cl)c1ccc(C(Cl)Cl)cc1	92 to 93 °C
N=C(N)C(F)(F)C(F)(F)C(F)(F)F	49 to 51 °C
O=C(c1ccc(Cl)cc1)c1nn(-c2ccccc2)/c(=N\N=Cc2ccc(F)cc2)s1	150 °C
CC(C)(O)C#Cc1ccccn1	83 °C
CC1(C)OC(=O)CC1CC(=O)O (centres undefined)	90 °C
CCCCCCCCCCCCCCCCCCCCBr	37.5 °C
CC(=O)CC(c1ccco1)c1c(O)c2ccccc2oc1=O (centres undefined)	124 °C
Oc1c(-c2ccccc2)cccc1-c1ccccc1	102 °C
CCCCCCCC(=O)CCC	4.5 °C
Nc1nccnn1	176 °C
C=COC(C)C	-140 °C
CC12CCC3C(CCC4=CC(=O)C=CC43C)C1CCC(=O)O2 (centres undefined)	218 °C
FC(F)(Br)C(F)(F)C(F)(F)C(F)(F)C(F)(F)C(F)(F)C(F)(F)C(F)(F)Br	40 °C
O=C(OCCOC(=O)C(Cl)(Cl)Cl)C(Cl)(Cl)Cl	40 °C

Compound	melting point
O=C1C=C[C@H](CO)O1	39 to 45 °C
C=CC(=O)OCC(C)C	-61 °C
NC(=S)CNC(=O)OCc1ccccc1	144 to 146 °C
CC(Cc1oc2c(c3c(c4ccccc42)O[C@@H]2CC(=O)O[C@H]32)c(=O)c1[Si](C)(C)C)O[Si](C)(C)C(C)(C)C (some centres undefined)	188 to 190 °C
FC(F)(F)COc1ccc(OCC(F)(F)F)cc1	76 °C
NC(=O)C(Cc1ccccc1)NC(=O)OCc1ccccc1 (centres undefined)	162 to 164 °C
CC(C)OC(=O)C(C(=O)OC(C)C)=C1SCCS1	54.9 °C
O=C(O)c1ccc(N/N=C(\C(=O)c2cccs2)C(=O)C(F)(F)F)cc1	219 °C
Cc1c(C)c(C)c2c(c1C)CC2	139 °C
O=C1c2ccccc2C(O)(O)C1(O)C1(O)C(=O)c2ccccc2C1(O)O (centres undefined)	240 °C
CC(=O)Nc1cc(NC(C)=O)c(C=Cc2ccccc2)c([N+](=O)[O-])c1C=Cc1ccccc1	276 °C
NC(=O)CC(N)C(=O)O (centres undefined)	234 °C
CCOC(=O)NNC(=O)Nc1ccccc1	144 to 145 °C
CCCCCCCCCCCC(=O)Oc1ccccc1	24.5 °C
O=C(O)CCCCCCCCCCCCCCC(=O)O	124 to 126 °C
CC1=CCC(C(C)(C)O)CC1 (centres undefined)	40.5 °C
N#Cc1ccnc(F)c1	32 °C
CCCN(CCC)c1c([N+](=O)[O-])cc(C)cc1[N+](=O)[O-]	80 °C
CC(Br)C(=O)c1ccc(Br)cc1 (centres undefined)	85 to 88 °C
CC1=CCCC1	-126 °C
O=C1CCCN1CCO	20 °C
C#CC1(O)CCC2(C)C3CCC4(C)C(=O)CCC4C3CCC2(C)C1 (centres undefined)	238 °C
CN1CCC(CN2c3ccccc3Sc3ccccc32)C1 (centres undefined)	87 °C

Compound	melting point
C#CCCCCCCC	-50 °C
CC12NC(Cc3ccccc31)c1ccccc12 (centres undefined)	68.8 °C
O=C1O[C@H](C(Cl)(Cl)Cl)N2CCC[C@@H]12 (relative stereo)	110 °C
Oc1ccccc1N1CCNCC1	125 °C
CC1(C)CNC(=NN=C(C=Cc2ccc(C(F)(F)F)cc2)C=Cc2ccc(C(F)(F)F)cc2)NC1	188 °C
COP(=S)(OC)Oc1ccc([N+](=O)[O-])cc1Cl	52.5 °C
NC(=O)C(F)(F)C(F)(F)C(F)(F)F	103 to 105 °C
N#CC(C(=O)OCc1ccccc1)c1cc(C(F)(F)F)ccc1[N+](=O)[O-] (centres undefined)	71 °C
N#Cc1ccc(Oc2ccccc2)cc1	45 to 48 °C
CCCCC(=O)c1ccc2c(c1)OCCOCCOc1cc(C(=O)CCCC)ccc1OCCOCCO2	117 to 133 °C
CON(C)C(=O)Nc1ccc(Cl)cc1	81.5 °C
CNC(c1cccc(C(F)(F)F)c1)C(NC)c1cccc(C(F)(F)F)c1 (centres undefined)	113 to 115 °C
Nc1nc(=O)[nH]cc1F	296 °C
Cc1ccncc1/C=N/N(C)C	50 °C
FC(F)(F)c1ccc(P(c2ccc(C(F)(F)F)cc2)c2ccc(C(F)(F)F)cc2)cc1	72 to 75 °C
O=C1CN2CCOC2(c2ccccc2Cl)c2cc(Cl)ccc2N1 (centres undefined)	203 °C
CC(C)(C)SC1(C#N)CC1(C#N)SC(C)(C)C (centres undefined)	104 °C
O=C(O)CCCCCC(=O)c1ccccc1	85 °C
O=C1CCCCCN1Cc1ccccc1	56 to 57 °C
ClCc1cc(-c2cccs2)on1	32 to 34 °C
CC(C)[C@@H](N)CO	32 to 36 °C
NC(CCS(=O)(=O)O)C(=O)O (racemic)	273 °C

Results, then the compound that gave them:

melting point	Compound
168 to 171 °C	O=C(Cl)c1ccc(-c2csnn2)cc1
255 °C	CC(=O)Nc1cc(N=Nc2ccccc2)c(C)c(NC(C)=O)c1
10 °C	Cc1ccccc1S(=O)(=O)Cl
136 °C	CC(=O)Nc1ccc(C(F)(F)F)cc1Cl
93 °C	COc1ccccc1OCC(O)COC(N)=O (centres undefined)
134 °C	COC(=O)CCc1ccc2c(c1)CCC(=O)N2
136 to 137 °C	O=C(Oc1c(F)c(F)c(F)c(F)c1F)c1csc(-c2cccnc2)n1
45 °C	O=S(=O)(Cl)c1c(Cl)cc(Br)cc1Cl
89 °C	CC(C)(O)C(=O)c1ccc(OCCO)cc1
130 to 133 °C	CCOC(=O)c1[nH]c2ccccc2c1C
70 to 72 °C	Cn1nc(-c2ccccc2)cc1CCl
114 to 115 °C	CCOC(=O)c1nc(-c2ccc(S(=O)(=O)Cl)s2)no1
-4 °C	O=Cc1ccncc1
152 °C	O=C(O)CCN1C(=O)c2ccccc2C1=O
171 to 173 °C	CC(=O)Nc1ccc(C(=O)C2CCNCC2)cc1
35 °C	Cc1csc2ccc(Cl)cc12
156 °C	Clc1ccc(/C=C(\Oc2ccc(Cl)cc2Cl)c2nc3ccccc3s2)cc1
265 °C	Cc1ccnc2c1NC(=O)c1cccnc1N2C1CC1
134 °C	CC(C)(C)NC(=O)c1ccccc1
152 °C	O=C(O)CN1CSC(=S)N(Cc2ccccc2)C1
152 °C	Cc1ccc2cc3c(ccc4ccccc43)cc2c1

melting point	Compound
235 °C	Cc1c(-c2ccccc2)oc2c(C(=O)O)cccc2c1=O
92 °C	COc1ccc(C(C)=O)cc1F
93 to 94 °C	O=Cc1ccc(OCc2ccccc2)c(Cl)c1
211 to 214 °C	C=CCn1c(S)nnc1-c1ccc2ncccc2c1
240 °C	CC(=Cc1ccc(C(=O)O)cc1)c1ccc2c(c1)C(C)(C)CCC2(C)C
154 °C	CC(C)(OCc1ccc(-c2ccc(Cl)cc2)cc1)C(=O)O
247 to 248 °C	Cn1cncc1C(=O)O
109 °C	NS(=O)(=O)c1ccc(F)c(Cl)c1
167 to 169 °C	CC1(C)CC(=O)c2cc(-c3ccccc3)n(-c3ccc(Cl)c(Cl)c3)c2C1
170 to 173 °C	CSc1nc(=O)n2ccc(C)cc2n1
110 to 113 °C	OCc1ccc(-c2cc(C(F)(F)F)cc(C(F)(F)F)c2)o1
101 °C	Oc1ccc2cccc(Cl)c2c1
183 to 185 °C	COc1cc(CC(=O)O)cc(Br)c1O
23 to 25 °C	COc1ccc(C(=O)N=C=S)cc1
24 to 25 °C	Cc1onc(-c2ccccc2)c1C(=O)Cl
191 to 194 °C	COc1ccc(-c2cc(C(F)(F)F)nc(N)n2)cc1
87 °C	O=C(Cl)c1cc2ccccc2s1
127 °C	COc1cc(C=CC(=O)O)cc(OC)c1OC
118 °C	COP(=O)(CN1C(=O)c2ccccc2C1=O)OC
104 °C	Clc1cc(Cl)c(I)cc1Cl
130 to 132 °C	CC(=O)c1cc(-c2ccc(Cl)c(Cl)c2)no1

melting point	Compound
270 °C	CC(=O)Nc1ccccc1C=Cc1cc(C=Cc2ccccc2NC(C)=O)c([N+](=O)[O-])cc1[N+](=O)[O-]
299 °C	Cc1cc(=O)oc2cc(O)cc(O)c12
> 200 °C	COc1ccc(C=CC(=O)c2cccc(C(=O)C=Cc3ccc(OC)c(O)c3)c2)cc1O
194 °C	CC(=O)N(c1onc(C)c1C)S(=O)(=O)c1ccc(N)cc1
94 to 98 °C	O=[N+]([O-])c1cc(CO)ccc1O
51 to 52 °C	O=S(=O)(Cl)c1ccccc1I
32.5 °C	O=c1ccocc1
99 to 100 °C	Cc1cc(C)c2c(c1)CC(C)(C)C(=O)OC2=O
110 to 111 °C	CCOC(=O)c1cc(C)nc2ccc(Br)cc12
146 °C	NS(=O)(=O)c1cccc(Cl)c1
296 °C	Cc1cccc(/N=N/c2c(N)nn3c(-c4ccccc4)cc(=O)[nH]c23)c1
243 to 245 °C	NC(Cc1cc(F)cc(F)c1)C(=O)O (racemic)
193 °C	Cn1c(/C(C#N)=N/Nc2ccccc2Cl)nc2ccccc21
84 °C	C#CCOc1ccc(N)cc1C(=O)NCCCC
162 to 163 °C	Fc1nc(Cl)c2[nH]cnc2n1
170 °C	COc1cc(C)c(Cl)cc1S(N)(=O)=O
150 to 153 °C	N#Cc1ccc(O)c(Cl)c1
209 to 212 °C	COc1cccc(C=Nn2c(C)cc(C)c(C#N)c2=O)c1O
115 to 118 °C	Nc1ccc(-c2cccnc2)cc1
